Assay results taken from the pKa sets of Baltruschat and Czodrowski (2020).

Details: acidic group
In the case of `Cc1cc(O)[nH+]c2c1CCO2`, the pKa is reported as 2.42. For `c1ccc(-c2nn[nH]n2)cc1`, the pKa was 4.53. `Cc1ccccc1C(=O)O` showed a pKa of 3.92. For `NC(=O)c1ccc(N)cc1O`, the pKa was 9.12. With `O=C(O)CCCc1c[nH]c[nH+]1` the pKa was 4.26. `COc1cc(S(C)=O)ccc1-c1nc2nnccc2[nH]1` (stereo unspecified) showed a pKa of 8.71. With `O=C(N/N=C/c1ccccc1[O-])c1ccncc1` the pKa was 11.3. `Nn1cnnc1` showed a pKa of 11.8. Molecule `CC/C([N+](=O)[O-])=[N+](/[O-])O` has a pKa of 4.1. For `Cc1csc(-c2cccc(NS(=O)(=O)c3ccc(N)cc3)c2)n1`, the pKa was 9.2. For `O=[N+]([O-])c1cc(C[NH+]2CCOCC2)c(O)c2ccccc12`, the pKa was 3. For `NC(=O)[C@@H]1CCCN1`, the pKa was 8.82. With `Nc1nc(N)[nH+]c(O)n1` the pKa was 4.5. In the case of `O=C(O)/C=C\C(=O)NOCc1ccccc1`, the pKa is reported as 3.8. For `O=C(/C=N/O)CCl`, the pKa was 7.9. Molecule `Cc1ccc(O)c([O-])c1` has a pKa of 13.3. Molecule `C[n+]1ccccc1O` has a pKa of 0.32. In the case of `CC(C)c1ccccc1C(=O)O`, the pKa is reported as 3.64. In the case of `COCCNC(=S)S`, the pKa is reported as 2.85. In the case of `[NH3+][C@@H](Cc1nc(I)[nH]c1I)C(=O)[O-]`, the pKa is reported as 8.18. With `Oc1nc(C(F)(F)F)nc2[nH+]c[nH]c12` the pKa was 1.1. With `Nc1n[nH]c(N)c1/N=N/c1ccccc1O` the pKa was 8.22. `O=C(O)/C=C/C(=O)CC(=O)CC(=O)O` gave a pKa of 3.6. Molecule `C/C(=N\O)C(=O)[N-]O` has a pKa of 11. Work on `CCc1c(C)nn(-c2ccccc2)c1O` yielded a pKa of 11.5. For `Fc1ccc(NC=S)cc1`, the pKa was 11.2. Work on `CC(C)(C)OC(=O)NC(CCC(N)=O)C(=O)O` (stereo unspecified) yielded a pKa of 3.66. `CC(C)c1ccc2c(c1)CC[C@H]1[C@](C)(C(=O)O)CCC[C@]21C` showed a pKa of 5.7. `Cc1cc(Cl)cc(Cl)c1O` gave a pKa of 7.85. With `CC(=O)/C(=N/O)c1ccccc1` the pKa was 8.85. `O=C(O)c1cnccn1` gave a pKa of 2.7. Work on `CC#CC#CC=C=C[C@@H](O)CCC(=O)O` yielded a pKa of 4.9. Work on `CC(C)(O)C(C(=O)O)c1ccc(-c2ccccc2)cc1` (stereo unspecified) yielded a pKa of 3.76. For `C=CCc1ccc2cccnc2c1O`, the pKa was 10.1. For `CC1(C)S[C@H]2[C@@H](NC(=O)Cc3ccc(O)cc3)C(=O)N2[C@@H]1C(=O)O`, the pKa was 2.62. `NC(=O)NOCCC([NH3+])C(=O)O` (stereo unspecified) gave a pKa of 2.5. In the case of `O=C(O)[C@@H]1CC[C@H](C(=O)O)S1`, the pKa is reported as 3.34. `CC[NH+](CC)CCOc1ccccc1C(=O)NO` gave a pKa of 8.42. With `CC#CC(=O)O` the pKa was 2.63. In the case of `Cc1cc(C)c(C)c(O)c1`, the pKa is reported as 10.6. `CC1CCCC(C(=O)O)c2nnnn21` (stereo unspecified) gave a pKa of 3.3. `COC(=O)c1ccccc1O` showed a pKa of 10.3. Molecule `Oc1ccc2c(c1)CCC2` has a pKa of 10.3. For `O=C(O)CCc1c[nH]c[nH+]1`, the pKa was 4. `N#C[C@H]1CCCC[C@@H]1C(=O)O` showed a pKa of 3.86. Work on `N#Cc1ccc2c(c1)C([P+](c1ccccc1)(c1ccccc1)c1ccccc1)c1ccccc1-2` (stereo unspecified) yielded a pKa of 5.81. Work on `O=C(Cc1ccccc1)c1cc[n+](Cc2ccccc2)cc1` yielded a pKa of 8.8. `C[N+](C)(C)c1ccccc1O` showed a pKa of 7.46. In the case of `NC(=O)C(CCC(=O)O)c1ccccc1` (stereo unspecified), the pKa is reported as 4.64. Molecule `COc1cc2c(cc1OC)[C@@H]1Cc3ccc(OC)c(O)c3[C@H](C2)N1C` has a pKa of 9.85. Molecule `Cc1nn(-c2ccccc2)c(O)c1C(C)C` has a pKa of 11.6. Molecule `CCNc1cc[nH+]c(S)n1` has a pKa of 3.1. With `CC(O)[C@@H]1C[NH2+][C@H](C(=O)[O-])[C@H]1CC(=O)O` (stereo partly specified) the pKa was 4.35. For `C[NH+](C)Cc1c(O)c(O)c(O)c(C[NH+](C)C)c1C(=O)[O-]`, the pKa was 6.95. With `O=S(=O)([O-])c1cc(O)cc2[nH]ncc12` the pKa was 8.85. `O/C(=C/c1ccncc1)c1ccccc1` showed a pKa of 10.3. `O=c1ccccc(O)c1[O-]` showed a pKa of 11.5. Work on `CCC(C)(C)C(=O)O` yielded a pKa of 5.03. `CN(C)C(=S)NCC(=O)O` showed a pKa of 3.71. Work on `CC[C@H](C)[C@H]([NH3+])C(=O)O` yielded a pKa of 2.31. `Oc1cccc(Cl)c1` gave a pKa of 8.96. `OCC[n+]1cc(Br)c2ccccc2c1` gave a pKa of 13.1. `CC1=NN(c2ccccc2)C(=O)/C1=C\c1c(C)nn(-c2ccccc2)c1O` gave a pKa of 13.8. `COc1cccc([N+](=O)[O-])c1O` showed a pKa of 6.74. With `OB(O)CCc1ccccc1` the pKa was 10. For `O=C(O)C12CC3CC(CC(C3)C1)C2`, the pKa was 4.95. In the case of `CN(C)c1cccc2c(S(N)(=O)=O)cccc12`, the pKa is reported as 9.9. Work on `O=S(=O)(Nc1cccc(F)c1)c1ccccc1` yielded a pKa of 7.54. In the case of `CO[C@H]1C[C@@H]1C(=O)O`, the pKa is reported as 4.47. For `O=C(O)c1cc[nH]c1`, the pKa was 4.98. Molecule `O=C(O)Cc1ccc2ccccc2c1` has a pKa of 4.26. Molecule `O=Cc1cccc(Cl)c1O` has a pKa of 6.61. Molecule `C[N+](C)(C)CCCc1ccccc1O` has a pKa of 9.78. Work on `Cc1nc2ncncc2[nH]1` yielded a pKa of 9.37. For `Cc1ccnc2c(O)cccc12`, the pKa was 8.44. Work on `O=C(O)CCCCC1CCSS1` (stereo unspecified) yielded a pKa of 4.82. `Cc1cccc(C(O)C(C(=O)O)c2ccc(-c3ccccc3)cc2)c1` (stereo unspecified) showed a pKa of 4.17. `Cc1ccc(I)c(C(=O)O)c1` gave a pKa of 2.95. Molecule `[O-][N+]([O-])=C(CO)CO` has a pKa of 13.5.

Same assay, conditions: basic group
Work on `Cc1ccc2c(c1)CCN2` yielded a pKa of 5. Work on `Brc1ccnc2c1ccc1cccnc12` yielded a pKa of 4.03. `c1cc(N2CCOCC2)ccc1N1CCCCC1` gave a pKa of 6.7. For `COCC(C)CN(C)C` (stereo unspecified), the pKa was 9.69. Work on `CC1=C(CC(C)NCC(O)c2ccc(Cl)cc2)CCC1(C)C` (stereo unspecified) yielded a pKa of 8.55. `COc1cc(S(C)=O)ccc1-c1nc2nnccc2[nH]1` (stereo unspecified) gave a pKa of 3.63. In the case of `Nc1ccc2cc3c(ccc4ccccc43)nc2c1`, the pKa is reported as 7.42.
